We go through one compound from patent publication US7557109B2, “Treatment for attention-deficit hyperactivity disorder” (priority 2001, dated 2009).

In one series the test system is wild-type mice. In words: DRL-36s schedule after FR5 conditioning, wild-type mice. Type of series: in vivo. The method, then:
(§1) Experiments were conducted in eight identical mouse operant chambers (16×14×13 cm) with stainless steel grid floors (ENV-307M; Med Associates Inc., Georgia, Vt., USA) housed in sound-insulating and ventilated cubicles. Each chamber was equipped with two ultra-sensitive retractable levers, one on each side of a food cup containing photocells to register nose poke behavior and in which a pellet dispenser delivered 20 mg food pellets (Formula A/I, P.J. Noyes Company Inc., Lancaster, N.H., USA). A red house light (50 lux) was located in the center of the wall opposite to the food cup and levers. Stimulus lights were located above each lever and above the food cup. Experimental sessions were controlled and data were recorded by a computer.
(§2) Mice trained on DRL procedure first received operant conditioning. DRL-36s task was adapted from procedures used in rats (O'Donnell and Seiden, supra). Briefly, mice first learned to respond for food under a DRL 6 sec schedule, which means that mice had to wait at least 6 seconds between successive lever presses in order to obtain a food reward. Subsequently the schedule requirement was increased every session in steps of 6 sec to 36 sec (DRL 36 sec). Each session started with the illumination of the house light, the stimulus light above the food cup and the presentation of the left lever for the duration of the session. […] If the mouse presses too soon, no reinforcement is given, the clock is reset to zero, and a new 36-sec waiting period starts. In this way, the DRL-36s schedule task primarily measures waiting strategies which reflect hyperactivity-impulsivity behaviors associated with ADHD. Animals were trained until performances on the DRL 36 sec schedule had stabilized (approximately 25 sessions). All training sessions lasted 60 min and were conducted 5 days per week from Monday-Friday. The total number of lever presses (responses), the total number of reinforcements, and the inter-response times (IRT) are recorded.
Data were analyzed as described elsewhere (Richards et al., J. Exp. Anal. Behav. 60:361-385, 1993; Sabol et al., Psychopharmacology 121:57-65, 1995). The inter-response time (IRT) analysis included three measures for the characterization of DRL 36 sec IRT distributions: peak area, peak location and burst ratio. Only peak area (PkA) and peak location (PkL) are presented. The PkA measure is the area of the obtained IRT distribution of a mouse above the corresponding negative exponential, a computation based on mean of obtained IRT durations excluding the burst component of IRT<3 sec (see Richards et al., supra, for details). […] Thus, decreases in PkA indicate that the mouse's IRT distribution becomes more similar to random performance indicating loss of schedule control. PkL is calculated as the median of the area of the obtained IRT distribution above the corresponding negative exponential.
Mice were conditioned and challenged on a DRL-36s schedule according to the methods of Example 7, with the following modifications. Because 1BKO mice had difficulty learning the DRL-36s schedule following conditioning on an FR1, wild-type and 1BKO mice were conditioned on a fixed rate 5 (FR5) schedule. In FR5, instead of pressing the lever once for a reward, animals have to press 5 times. The rationale for changing the operant conditioning was that by increasing the number of responses necessary for reinforcement, the wild-type mice should have greater difficulty and the 1BKO (which have higher response rates anyway) should have less difficulty getting reinforcements.

Series [1] relates to 5-HT1B knockout (1BKO) mice. As to the kind of experiment: DRL-36s schedule after FR5 conditioning, 5-HT1B knockout mice. Format: in vivo. The method, then: as §1, §2
Data were analyzed as described elsewhere (Richards et al., J. Exp. Anal. Behav. 60:361-385, 1993; Sabol et al., Psychopharmacology 121:57-65, 1995). The inter-response time (IRT) analysis included three measures for the characterization of DRL 36 sec IRT distributions: peak area, peak location and burst ratio. Only peak area (PkA) and peak location (PkL) are presented. The PkA measure is the area of the obtained IRT distribution of a mouse above the corresponding negative exponential, a computation based on mean of obtained IRT durations excluding the burst component of IRT<3 sec (see Richards et al., supra, for details). […] PkL is calculated as the median of the area of the obtained IRT distribution above the corresponding negative exponential. […]

Series [2] concerns DA and 5-HT release in dorsal striatum. As to the kind of experiment: In vivo microdialysis of DA and 5-HT release in dorsal striatum, wild-type mice. To be noted: 0.1 mg/kg i.p. The source says: Wild-type and 5-HT1B knock out mice were implanted with microdialysis probes according to the methods of DeGroote et al., incorporated herein by reference, with the following modifications. (DeGroote et al., Eur. J. Pharmacol., 439:93-100, 2002). The dialysis probe was placed in the dorsal striatum, at coordinates AP +0.80, ML −1.7 mm from bregma, DV −4.0 mm from the dura, according to the stereotaxic atlas of the mouse brain (Franklin and Paxinos, 1997), and with the toothbar set at 0 mm. Microdialysis experiments were begun 16-20 hours after surgery, using previously described methods, which are incorporated herein by reference (DeGroote et al., 2002). After the start of the dialysis probe perfusion, mice were left undisturbed for three hours. Mice were tested in their home cage during the light period. Samples were collected every 20 minutes in vials containing 7.5 μl acetic acid and stored at −80° C. until HPLC analysis.
Release of DA and 5-HT was measured after peripheral administration of eltoprazine or intrastriatal administration of the selective 5-HT1B receptor agonist CP 93129 dihydrochloride (1,4-Dihydro-3-(1,2,3,6-tetrahydro-4-pyridinyl)-5H-pyrrolo[3,2-b]pyridin-5-one, obtained from Tocris, UK.) Drugs were dissolved in distilled water and further diluted in Ringer solution to the final concentration on the day of the experiment. 5-HT and DA were analyzed by HPLC with electrochemical detection. Samples (25 μl) were injected onto an Inertsil ODS-3 column (3 μM, 2.1×100 mm, Aurora Borealis, The Netherlands) using a Gilson pump and autosampler (Separations, The Netherlands). Separation was performed at 40° C. with the electrochemical detector (Intro, ANTEC Leyden, The Netherlands) set at a potential of 600 mV against an Ag/AgCl reference electrode. The signal was analyzed using Gynkotek software. The mobile phase consisted of 5 g/l (NH4)2SO4, 150 mg/l heptane sulphonic acid sodium salt, 0.5 g/l EDTA, 5% methanol, 30 μl/l triethylamine, 30 μl/l acetic acid, pH 4.6. Flow rate was 0.3 ml/min. The detection limit for 5-HT was 0.5 fmol/25 μl sample (signal to noise ratio 2).
Values for the first four consecutive microdialysis samples were averaged to calculate the basal levels of extracellular 5-HT and DA, uncorrected for probe recovery. Student's t-tests were used to compare basal 5-HT and DA values between the two genotypes. Effects of drug treatment were analyzed by a repeated multivariate analysis of variance (ANOVA) with time as ‘within’ and treatment (or dose) and genotype as ‘between’ factors.

The next series addresses dopamine receptors. The conditions noted are these: read-out: Ki, affinity for dopamine receptors; cited from earlier work.
Another series deals with 5-HT receptor subtypes. The conditions noted are these: cited from earlier work.
The conditions of series [3]: broad range of doses; cited from earlier work.
The mark [4] stands for this setting: 0.5 mg/kg and 1 mg/kg i.p. (FIG. 13A).

One may read the Ki as a dissociation constant, usually derived from enzyme kinetics or from competition with a known ligand. As for `c1cc2c(c(N3CCNCC3)c1)OCCO2` [eltoprazine, 1-(2,3-dihydro-1,4-benzodioxanyl-5-yl) piperazine], the number of reinforcements result with wild-type mice (setting [4]) is “significantly decreased reinforcements”. For the same compound, in the series with wild-type mice (0.5 mg/kg i.p. (FIG. 13B)), the response rate result is reported as “significantly decreased response rates”. Further, the number of reinforcements entry in series [1] (setting [4]) was “significantly decreased reinforcements”. Also, the response rate result in series [1] (0.5 mg/kg i.p. (FIG. 13B)) was “significantly decreased response rates”. Also, in series [2], the “time after administration to decrease of DA and 5-HT release” value is no more than 20 min; the “time striatal release of DA and 5-HT remained below basal levels after administration” value is listed as “at least 100 minutes”. In addition, in series [2] (awake mice), the “basal release of 5-HT” value is on record as “decreased basal release” and the “basal release of DA” value was “decreased basal release”. Moreover, the inhibitory constant (Ki) at dopamine receptors is greater than 1000 nM. Also, the “affinity for the 5-HT1A, 5-HT1B, and 5-HT2C receptors” value with 5-HT receptor subtypes is reported as “roughly equipotent affinity”. The “affinity for the 5-HT1D receptor” value with 5-HT receptor subtypes (compared with serotonin) is given as “relatively low affinity”. Also, in series [3], the “overall safety and tolerance” value is on record as “good”.
